How the values were obtained:
HUVEC cells [1] = assay: Vascular endothelial cell (HUVEC) Transwell migration assay with OC conditioned medium; assay type: cell-based, human; details: for HUVEC migration induced by conditioned media of treated OC cells: conditioned media from SKOV-3 cells treated 48 hours, 10 μg/mL Gal-3C or 8 nM paclitaxel, compared with controls; for HUVEC chemotaxis, direct effect of residual drugs: control OC-conditioned medium supplemented with 2 μg/mL Gal-3C, 1.6 nM paclitaxel, or combined, results not shown
Experimental: The experiments were run in triplicate and the results are expressed as the mean number of migrated cells in the presence of different stimuli.
After 48-hour treatments (10 μg/mL Gal-3C, 8 nM paclitaxel, or combined drugs), the conditioned media form SKOV-3 cells was harvested and tested for its ability to induce migration of HUVEC cells in a Transwell assay. […] To test if residual drugs in the conditioned media could inhibit HUVEC migration, a migration assay was performed in the presence of control OC-conditioned medium supplemented with 20% of drug amounts (2 μg/mL Gal-3C, 1.6 nM paclitaxel, and combined drugs).

HUVEC cells [2] = assay: In vitro tubule formation (angiogenesis) assay with OC conditioned media; assay type: cell-based, human; details: for formation of vessel-like structures by HUVEC cells: conditioned media (20% V/V) of OC cells pre-treated 48 hours, 10 μg/mL Gal-3C, 8 nM paclitaxel or combination; for average number of branching points: conditioned media of 48-h treated OC cells, all tested OC cells, compared with vehicle-treated cells; for tubule formation, direct effect of drugs: conditioned media of untreated OC cells (20% V/V) supplemented with 10 μg/mL Gal-3C, 8 nM paclitaxel or both, results not shown
Experimental: Tubule formation assay. A capillary tubule formation assay was performed as previously described (25). Briefly, growth factor-reduced Matrigel™ (50 μL/well; Becton Dickinson) was added with 30 ng/mL recombinant basic fibroblastic growth factor (bFGF; R&D Systems) and incubated for 1 hour at 37° C. 2-h serum-starved HUVEC cells (5,000), were resuspended in 200 μL serum-free EGM-2 medium (Lonza) supplemented with 20% V/V conditioned medium from differently treated OC cells (obtained after 48-h treatment of OC cells with 10 μg/mL Gal-3C, 8 nM paclitaxel, the combination of both, or 0.6% V/V PBS as drug vehicle). HUVEC were then seeded onto the Matrigel™ and incubated at 37° C. and 5% CO2 for 16 hours to allow tubule formation. The assays were run in triplicate, and microphotographs were taken using 40× and 20× objectives with an inverted X71 microscope (Olympus). Pictures were also used to count the number of branching points originated by HUVEC cells, as a measure of the degree of angiogenesis, by the Wimasis WimTube software (Wimasis GmbH, Munich, Germany). Statistically significant differences in the number of branching points were analyzed by the Kruskal-Wallis test followed by a Dunns post-test, to compare all the treatment groups with each other.
Gal-3C blocked OC cell angiogenic potential and αvβ3 integrin clustering. To study the effects of Gal-3C on OC cells ability to induce the formation of new vessels, an in vitro tubule formation assay was carried out using HUVEC cells stimulated with the conditioned media (20% V/V) of OC cells pre-treated for 48 hours with 10 μg/mL Gal-3C, 8 nM paclitaxel, or a combination of both treatments. […] The amount of branching points was also calculated through the Wimasis WimTube software, as described hereinabove. […] A parallel set of experiments were performed using a mixture consisting of the 48-hour conditioned media of each untreated OC cell line (20% V/V) supplemented with 10 μg/mL Gal-3C, 8 nM paclitaxel, or 10 μg/mL Gal-3C+8 nM paclitaxel. […] This outcome on in vitro angiogenesis was correlated with an evident reduction in the clusters of αvβ3 integrins (FIG. 7).

[3] = tested on: αvβ3 integrin clusters in HUVEC cells; assay: αvβ3 integrin clustering assay; assay type: cell-based, human; details: conditioned medium of OC cells pre-treated 48 h; 10 μg/mL Gal-3C, 8 nM paclitaxel or combined
Experimental: αvβ3 integrin clustering assay. HUVEC cells were cultured in 8-chamber slides coated with 10 μg/mL fibronectin (10^4 cells/chamber). Cells were incubated with conditioned medium of SKOV-3 cells (obtained as described for the tubule formation assay) for 20 minutes to allow integrin clustering, then fixed with 4% WN buffered (pH=7.5) paraformaldehyde in PBS (10 minutes at 37° C.). Then, cells were incubated with 10 μg/mL anti-integrin αvβ3 antibody (R&D Systems, 1:200 dilution in PBS) for 1 hour at RT, followed by two washing steps in PBS (5 minutes each) prior to the addition of FITC-anti-mouse IgG (1:1000 dilution in PBS) for 1 hour at RT. Microphotographs of randomly selected fields were acquired at 60× magnification by confocal microscopy (Leica TCS-SL Confocal Spectral Microscope System, Leica Microsystems, Buffalo Grove, Ill., USA).
Gal-3C blocked OC cell angiogenic potential and αvβ3 integrin clustering. To study the effects of Gal-3C on OC cells ability to induce the formation of new vessels, an in vitro tubule formation assay was carried out using HUVEC cells stimulated with the conditioned media (20% V/V) of OC cells pre-treated for 48 hours with 10 μg/mL Gal-3C, 8 nM paclitaxel, or a combination of both treatments. […] The amount of branching points was also calculated through the Wimasis WimTube software, as described hereinabove. […]

Akt/NF-κB pathway = assay: Western blotting of Akt/NF-κB pathway activation in OC cells; assay type: cell-based; details: 48 hours, Western blot; for levels of phosphorylated, active NF-κB (P-p65) / phospho-Akt (P-Akt) levels: 10 μg/mL Gal-3C, 8 nM paclitaxel or combined
Experimental: Western blotting. Cells were harvested and washed twice with PBS, then lysed (25), and resolved on 12% Bis-Tris (Bis(2-hydroxyethyl)-amino-tris(hydroxymethyl)-methane) poly-acrylamide gel (Invitrogen) and then electrotransferred onto 0.2 μm nitrocellulose membrane. After rinsing in PBS-Tween, the blot was incubated in protein-free blocking buffer (Pierce/Thermo) at 4° C. overnight, then incubated with the indicated primary antibodies (Cell Signaling Technology, Inc., Danvers, Mass. USA) diluted in blocking buffer for 2 hours at RT. After washing 5 times with PBS-Tween, the blot was incubated with matched horseradish peroxidase-coupled secondary antibodies, and developed with the ECL Western blotting Detection System from Perkin-Elmer Life Sciences (Boston, Mass., USA).
Gal-3C reversed the effect of paclitaxel on NF-κB activation by reducing the phosphorylation of Akt. OC cells treated for 48 hours with 10 μg/mL Gal-3C, 8 nM paclitaxel, or combined treatments as described above, then protein extracts were analyzed by Western blotting. […] Increased or decreased levels of p65 phosphorylation (P-p65) were in accordance with higher or lower levels (respectively) of IKB and IKKα/β phosphorylation, as expected. […] To rule out the possibility that alterations in the phosphorylation of p-65, IKB, IKK, or Akt were the results of modulations in the expression levels, total p-65, IKB, IKK, or Akt (phosphorylated and not-phosphorylated forms) were also examined (FIGS. 3A and 3B).

Pt2 = assay: Cell viability (ViaLight Plus), primary OC cells Pt2; assay type: cell-based, human; details: Gal-3C single agent, escalating concentrations (0, 2, 10, 20 μg/mL), 48 hours, on average
Experimental: (§1) Cells. The OC cell lines used in this study were SKOV-3 and ID8 (American Type Culture Collection, Manassas, Va., USA), while primary epithelial OC cells from two patients were obtained with approval from the Texas Tech University HSC IRB (L-Micro Study, IRB NUMBER: L04-095), and the patients' written informed consent. All OC cells were cultured in RPMI-1640 medium supplemented with 10% fetal bovine serum (FBS, Thermo Scientific, Rockford, Ill., USA) in 5% CO2 atmosphere at 37° C. Human Umbilical Vein Endothelial Cells (HUVEC, American Type Culture Collection) were maintained in EGM-2 medium supplemented with endothelial cells growth factors (Lonza, Houston, Tex., USA) and were used within 10 passages.
(§2) Cell viability. Cell proliferation was assessed with a ViaLight Plus Cell Proliferation and Cytotoxicity BioAssay Kit (Lonza, Walkersville, Md., USA) according to the directions of the manufacturer. […] Luminescence was measured with a 1-s integrated setting in a Berthold luminometer.
(§3) Administration of Gal-3C reduced OC cell viability when used as a single agent and improved the effects of paclitaxel. OC cells were treated with escalating concentrations of Gal-3C (0, 2, 10, and 20 μg/mL) for 48 hours, then viability was measure as described in methods, and expressed as percentage of control cells (treated with equal amounts of drug vehicle). […]

OC cells [4] = assay: Transwell migration assay of OC cells; assay type: cell-based; details: 48-hour treatment; 10 μg/mL Gal-3C, 8 nM paclitaxel or combined; compared with controls
Experimental: Migration assays. 4×10^5 cells were plated in 100 μL serum-free culture medium (supplemented with drugs or vehicle) in the top chambers of 24-well Transwell™ polycarbonate inserts (Corning Costar, NY, USA) with 8-μm pores. Complete culture medium (600 μL) was added to the bottom chamber. After incubation for 4 hours, cells on lower side of the filter were fixed, stained and counted as described (25).
After 48-hour treatment with 10 μg/mL Gal-3C, 8 nM paclitaxel, or combined drugs, OC cells were tested for in vitro invasivity and motility abilities as described in methods.

Pt1 = assay: Cell viability (ViaLight Plus), primary OC cells Pt1; assay type: cell-based, human; details: Gal-3C single agent, escalating concentrations (0, 2, 10, 20 μg/mL), 48 hours, on average
Experimental: as §1, §2, §3

OC cells [5] = assay: Matrigel invasion assay; assay type: cell-based; details: 48-hour treatment; 10 μg/mL Gal-3C, 8 nM paclitaxel or combined; compared with controls
Experimental: Invasion assay. OC invasion potential was measured as described (25), using Transwell™ polycarbonate inserts (5-μm pore size).
Gal-3C reduced OC invasion and migration alone and in combination with paclitaxel. After 48-hour treatment with 10 μg/mL Gal-3C, 8 nM paclitaxel, or combined drugs, OC cells were tested for in vitro invasivity and motility abilities as described in methods.

SKOV-3 = assay: Cell viability (ViaLight Plus), SKOV-3; assay type: cell-based, human; details: Gal-3C single agent, escalating concentrations (0, 2, 10, 20 μg/mL), 48 hours, on average
Experimental: (§4) Cell viability. Cell proliferation was assessed with a ViaLight Plus Cell Proliferation and Cytotoxicity BioAssay Kit (Lonza, Walkersville, Md., USA) according to the directions of the manufacturer. In brief, OC cells were seeded in 100 μL RPMI-1640 with 10% heat-inactivated FBS in 96-well plates (8×10^3/well). Each drugs/drug combination was tested in triplicate. Luminescence was measured with a 1-s integrated setting in a Berthold luminometer.
(§5) Administration of Gal-3C reduced OC cell viability when used as a single agent and improved the effects of paclitaxel. OC cells were treated with escalating concentrations of Gal-3C (0, 2, 10, and 20 μg/mL) for 48 hours, then viability was measure as described in methods, and expressed as percentage of control cells (treated with equal amounts of drug vehicle). […] On average, viability was reduced by 25% in SKOV-3, 50% in ID8, 29% in Pt1 and 57% in Pt2 cells. Then, in a separate set of experiments, OC cells were treated for 48 hours with 10 μg/mL Gal-3C, 8 nM paclitaxel, or combined 10 μg/mL Gal-3C+8 nM paclitaxel.

[6] = tested on: OC cells (SKOV-3, ID8, Pt1, Pt2); assay: Cell viability, statements for all OC cells tested; assay type: cell-based; details: 48 hours
Experimental: as §4, §5

[7] = compared with available standard treatments; cited from earlier work
ID8 = assay: Cell viability (ViaLight Plus), ID8; assay type: cell-based, murine; details: Gal-3C single agent, escalating concentrations (0, 2, 10, 20 μg/mL), 48 hours, on average
Experimental: as §4, §5

CC(=O)O[C@H]1C(=O)[C@@]2(C)[C@H]([C@H](OC(=O)c3ccccc3)[C@]3(O)C[C@H](OC(=O)[C@H](O)[C@@H](NC(=O)c4ccccc4)c4ccccc4)C(C)=C1C3(C)C)[C@]1(OC(C)=O)CO[C@@H]1C[C@@H]2O [paclitaxel, Paclitaxel, reference compound]
HUVEC migration induced by conditioned media of treated OC cells (HUVEC cells [1]): unable to reduce the production of HUVEC chemotactic factors
HUVEC chemotaxis, direct effect of residual drugs (HUVEC cells [1]): did not significantly affect HUVEC chemotaxis
formation of vessel-like structures by HUVEC cells (HUVEC cells [2]): significantly reduce
average number of branching points (HUVEC cells [2]): significantly reduced
tubule formation, direct effect of drugs (HUVEC cells [2]): unable to significantly affect tubule formation
αvβ3 integrin clusters in HUVEC cells [3]: still preserved the ability to induce αvβ3 integrin cluster in HUVEC cells (even if at a lower extent compared with control)
levels of phosphorylated, active NF-κB (P-p65) (Akt/NF-κB pathway): increased
phospho-Akt (P-Akt) levels (Akt/NF-κB pathway): increased

Gal-3C: truncated, dominant-negative form of Galectin-3; last 143 carboxy-terminal amino acid residues of human Galectin-3 (SEQ ID NO. 4)
viability reduced (percentage of control cells) (Pt2): 57%
OC cell migration (OC cells [4]): significantly reduced
HUVEC migration induced by conditioned media of treated OC cells (HUVEC cells [1]): significant effect
HUVEC chemotaxis, direct effect of residual drugs (HUVEC cells [1]): did not significantly affect HUVEC chemotaxis
formation of vessel-like structures by HUVEC cells (HUVEC cells [2]): significantly reduce
average number of branching points (HUVEC cells [2]): significantly reduced
tubule formation, direct effect of drugs (HUVEC cells [2]): unable to significantly affect tubule formation
viability reduced (percentage of control cells) (Pt1): 29%
αvβ3 integrin clusters in HUVEC cells [3]: completely abrogated
OC cell invasion (OC cells [5]): significantly reduced
phosphorylated IKKB, IKK levels (Akt/NF-κB pathway; 10 μg/mL Gal-3C alone, compared with controls): reduction
levels of phosphorylated, active NF-κB (P-p65) (Akt/NF-κB pathway): reduction
phospho-Akt (P-Akt) levels (Akt/NF-κB pathway): reduction
viability reduced (percentage of control cells) (SKOV-3): 25%
concentration from which cell viability is significantly reduced ([6]; 0, 2, 10, 20 μg/mL tested): ≥ 10 µg/mL
cell viability, comparison between treatments ([6]; 10 μg/mL Gal-3C, 8 nM paclitaxel or combined): more effective in reducing cell viability compared with paclitaxel in all cell lines except SKOV-3
toxicity profile [7]: very low toxicity profile
viability reduced (percentage of control cells) (ID8): 50%
